Twelve compounds from PubChem BioAssay (NCI) can be followed below.

Test systems include MDA-MB-231 breast; SN12C renal; EKVX NSCLC; SNB-75 CNS; A498 renal; SNB-19 CNS; NCI-H460 lung; NCI-H522 lung; BT-549 breast; U251 CNS.
Test in all cases: inhibition of tumour cell growth, NCI panel, 48 h

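Following 48 hours of exposure in 96-well plates, responses at five concentrations were used to interpolate endpoints linearly. GI50 marks 50% less growth. TGI: concentration producing complete growth inhibition.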 Some results are limits rather than exact numbers.

As to `C#CC#CC#CC#CC#CC#CC#CC#CCC1OC[C@H](COC(=O)O[C@@H](C(=O)O[C@H]2C[C@@]3(O)[C@@H](OC(=O)c4ccccc4)[C@@H]4[C@]5(OC(C)=O)CO[C@@H]5C[C@H](O)[C@@]4(C)C(=O)[C@H](OC(C)=O)C(=C2C)C3(C)C)[C@@H](NC(=O)c2ccccc2)c2ccccc2)O1` (stereo not given in full), the GI50 is 1.27 µM in the test on MDA-MB-231 breast; 1.34 µM with SN12C renal; over 33.3 µM with EKVX NSCLC; 72.7 nM with SNB-75 CNS; 494 nM in the test with A498 renal; 1.14 µM in the test with SNB-19 CNS. The GI50 in the test with NCI-H460 lung was 123 nM; in the test on NCI-H522 lung, 648 nM; in the test on BT-549 breast, 1.01 µM; with U251 CNS, 394 nM. For the same compound, the TGI was over 33.3 µM in the test with MDA-MB-231 breast; over 33.3 µM with SN12C renal; over 33.3 µM in the test with EKVX NSCLC; 0.648 µM in the test on SNB-75 CNS; over 8.14 µM with A498 renal; over 33.3 µM in the test on SNB-19 CNS. The TGI with NCI-H460 lung, with NCI-H522 lung, in the test on BT-549 breast and in the test with U251 CNS was over 33.3 µM throughout.

As for `O=C1C=C(Nc2nc(C(=O)O)cc(=O)[nH]2)c2ccccc2C1=O`, the TGI in the test on MDA-MB-231 breast, in the test on SN12C renal, in the test with EKVX NSCLC, with SNB-75 CNS, in the test with A498 renal and in the test with SNB-19 CNS was over 100 µM each time. In addition, the TGI in the test on NCI-H460 lung, with NCI-H522 lung, in the test on BT-549 breast and with U251 CNS was over 100 µM in each case.

Consider `Cc1ccccc1NC(=O)c1sc2nc3c(cc2c1N)C(=O)CCC3`, for which the GI50 was 3.98 µM with MDA-MB-231 breast; 5.53 µM in the test with SN12C renal; 6.82 µM with EKVX NSCLC; 1660 nM with SNB-75 CNS; 1160 nM with A498 renal; 3.1 µM with SNB-19 CNS. In addition, the GI50 with NCI-H460 lung was 2630 nM; with NCI-H522 lung, 896 nM; in the test on BT-549 breast it was 6.58 µM; in the test on U251 CNS, 1670 nM. The TGI was over 100 µM in the test on MDA-MB-231 breast; over 100 µM in the test with SN12C renal; over 100 µM in the test with EKVX NSCLC; over 100 µM with SNB-75 CNS; 4.65 µM with A498 renal; over 100 µM in the test on SNB-19 CNS. Besides, the TGI in the test with NCI-H460 lung is 10.6 µM; with NCI-H522 lung it was 3.5 µM; in the test with BT-549 breast it was over 100 µM; in the test with U251 CNS, 21.4 µM.

Consider `C=CCNc1cccc2c1C(=O)c1ccccc1C2(O)CC=C` (stereo not given), for which the GI50 in the test on MDA-MB-231 breast was 12.3 µM; in the test on SN12C renal, 20.2 µM; in the test with EKVX NSCLC, 31.8 µM; with SNB-75 CNS it was 17000 nM; with A498 renal, 21800 nM; in the test on SNB-19 CNS, 18.5 µM. The GI50 with NCI-H460 lung was 56000 nM; with NCI-H522 lung it was 18400 nM; in the test on BT-549 breast, 19.3 µM; with U251 CNS, 17400 nM. For the same compound, the TGI is 28.3 µM with MDA-MB-231 breast; 43 µM in the test with SN12C renal; over 100 µM with EKVX NSCLC; 45.7 µM in the test with SNB-75 CNS; 47.8 µM in the test on A498 renal; 44.7 µM with SNB-19 CNS. In addition, the TGI is over 100 µM in the test with NCI-H460 lung, 51.6 µM in the test on NCI-H522 lung, 42.7 µM in the test with BT-549 breast and 39.2 µM in the test on U251 CNS.

Consider `COc1ccc2sc3c(NCCCNCCO)nc4ccccc4c3c(=O)c2c1`, for which the GI50 in the test with MDA-MB-231 breast is 1.48 µM; with SN12C renal it was 1.6 µM; in the test with EKVX NSCLC, 1.45 µM; with SNB-75 CNS it was 1820 nM; in the test with A498 renal, 1490 nM; in the test with SNB-19 CNS it was 1.65 µM. The GI50 in the test with NCI-H460 lung was 1510 nM; in the test on NCI-H522 lung it was 1740 nM; with BT-549 breast, 10.2 µM; in the test on U251 CNS, 1600 nM. Moreover, the TGI in the test with MDA-MB-231 breast worked out at 2.95 µM; with SN12C renal it was 3.12 µM; in the test on EKVX NSCLC, 2.94 µM; in the test on SNB-75 CNS it was 3.34 µM; in the test on A498 renal it was 2.97 µM; with SNB-19 CNS, 3.15 µM. Also, the TGI is 2.96 µM in the test with NCI-H460 lung, 3.37 µM in the test with NCI-H522 lung, 22.7 µM with BT-549 breast and 3.16 µM in the test with U251 CNS.

With `CC1(C)CC[C@]2(C(=O)O)CC[C@]3(C)[C@H](CC[C@@H]4[C@@]5(C)CCC(=O)C(C)(C)[C@@H]5CC[C@]43C)[C@H]2[C@H]1OC(=O)C(F)(F)F`, the GI50 with MDA-MB-231 breast was 13.5 µM; with SN12C renal it was 11.5 µM; in the test with EKVX NSCLC it was 14.5 µM; with SNB-75 CNS it was 26400 nM; with A498 renal, 15700 nM; in the test on SNB-19 CNS, 13.8 µM. For the same compound, the GI50 is 7650 nM with NCI-H460 lung, 12600 nM in the test on NCI-H522 lung, 9.3 µM in the test on BT-549 breast and 12400 nM in the test with U251 CNS. The TGI was 31.4 µM in the test with MDA-MB-231 breast; 24.8 µM in the test with SN12C renal; 30.5 µM with EKVX NSCLC; over 100 µM with SNB-75 CNS; 30.9 µM in the test on A498 renal; 27.9 µM in the test with SNB-19 CNS. The TGI amounted to 29.7 µM in the test with NCI-H460 lung, 29.1 µM with NCI-H522 lung, 22.3 µM with BT-549 breast and 26.2 µM in the test on U251 CNS.

`CC(C)[C@@H](CS(=O)(=O)C(C)C)N1C(=O)[C@@](C)(CC(=O)O)C[C@H](c2cccc(Cl)c2)[C@H]1c1ccc(Cl)cc1`: the GI50 was 18.3 µM in the test on MDA-MB-231 breast; 19.8 µM in the test with SN12C renal; 11.9 µM with EKVX NSCLC; 12200 nM in the test with SNB-75 CNS; 537 nM in the test with A498 renal; 14.6 µM with SNB-19 CNS. Further, the GI50 in the test on NCI-H460 lung is 388 nM; in the test on NCI-H522 lung, 17800 nM; with BT-549 breast, 12.9 µM; in the test with U251 CNS, 7860 nM. The TGI was 39.2 µM in the test on MDA-MB-231 breast; over 70.5 µM with SN12C renal; over 100 µM in the test with EKVX NSCLC; over 85.8 µM in the test with SNB-75 CNS; 16.8 µM in the test on A498 renal; 66.5 µM in the test on SNB-19 CNS. Besides, the TGI worked out at 15.1 µM in the test with NCI-H460 lung, 51.5 µM with NCI-H522 lung, 40.3 µM with BT-549 breast and 25.3 µM in the test with U251 CNS.

Consider `CC(C)(CCC(C)(C)c1ccccc1)c1ccccc1`, for which the TGI with MDA-MB-231 breast is 31.5 µM; in the test on SN12C renal, 32.7 µM; in the test on EKVX NSCLC it was 32.4 µM; in the test with SNB-75 CNS it was 36.7 µM; in the test with A498 renal, 33.2 µM; in the test with SNB-19 CNS, 33.7 µM. The TGI worked out at 31.9 µM in the test with NCI-H460 lung, 29.9 µM with NCI-H522 lung, 37.2 µM in the test with BT-549 breast and 30.4 µM in the test on U251 CNS.

Turning to `O=[N+]([O-])c1ccc2c(c1)S(=O)c1ccccc1-2` (stereo not given), the TGI with MDA-MB-231 breast, in the test with SN12C renal, in the test on EKVX NSCLC, with SNB-75 CNS, with A498 renal and with SNB-19 CNS was over 100 µM throughout. For the same compound, the TGI with NCI-H460 lung, in the test with NCI-H522 lung, in the test with BT-549 breast and in the test on U251 CNS was over 100 µM in each case.

Turning to `CN1CCN(c2cc(Nc3cc(C4CC4)[nH]n3)nc(Nc3ccc(CC(=O)NCc4cccc(F)c4)cc3)n2)CC1`, the GI50 in the test on MDA-MB-231 breast was 0.451 µM; in the test on SN12C renal, 0.756 µM; in the test on EKVX NSCLC, 3.41 µM; in the test with SNB-75 CNS it was 168 nM; in the test on A498 renal, 143 nM; with SNB-19 CNS it was 2.25 µM. In addition, the GI50 with NCI-H460 lung was 536 nM; with NCI-H522 lung it was 1530 nM; in the test on BT-549 breast it was 2.96 µM; in the test with U251 CNS, 978 nM. Further, the TGI in the test with MDA-MB-231 breast was found to be 6.16 µM; with SN12C renal, 14.4 µM; with EKVX NSCLC it was 32.4 µM; in the test on SNB-75 CNS, 0.778 µM; in the test on A498 renal, 0.967 µM; in the test on SNB-19 CNS, 23.4 µM. For the same compound, the TGI amounted to 3.68 µM with NCI-H460 lung, 7.08 µM with NCI-H522 lung, 19.9 µM with BT-549 breast and 5.24 µM with U251 CNS.

Regarding `OC(C(=Nc1ccccc1)c1ccccc1)c1ccccc1` (stereo not given), the TGI is 39.3 µM in the test with MDA-MB-231 breast; 25.3 µM with SN12C renal; 9.35 µM in the test on EKVX NSCLC; 25.4 µM in the test with SNB-75 CNS; 33.6 µM in the test with A498 renal; 31.6 µM with SNB-19 CNS. The TGI with NCI-H460 lung came out at 34.3 µM; in the test on NCI-H522 lung, 18.9 µM; with BT-549 breast, 9.51 µM; with U251 CNS, 15.6 µM.

On to `COc1cccc2c1C(=O)c1c(O)c3c(c(O)c1C2=O)C[C@@](O)(/C(C)=N\O)C[C@@H]3OC1CC(N)C(O)C(C)O1` (stereo not given in full), for which the TGI with MDA-MB-231 breast stood at 7.17 µM; with SN12C renal, 13.1 µM; with EKVX NSCLC, 19.5 µM; in the test on SNB-75 CNS, 2.54 µM; in the test on A498 renal, 3.31 µM; in the test with SNB-19 CNS it was 8.93 µM. Besides, the TGI in the test on NCI-H460 lung came to 8.16 µM; with NCI-H522 lung, 1.73 µM; in the test on BT-549 breast, 5.65 µM; with U251 CNS, 7.73 µM.
